Results from a melting point compilation (Tetko et al.; mined from patent text by program, amines drawn as free bases though some values may be those of a salt).

Structure (SMILES) | melting point
CCOCc1nc2c(N)nc(C)c(C)c2n1CCCNC(=O)OCC | 148 to 150 °C
N#Cc1ccc(NCCO)c([N+](=O)[O-])c1 | 132 to 134 °C
O=C(c1ccn2c1CSC2c1cccnc1)c1c[nH]c2cc(-c3ccc(F)cc3)ccc12 (stereo unspecified) | 248 to 252 °C
Cc1ccc(N=C=O)c(S(=O)(=O)Cl)c1 | 36 to 38.5 °C
CCC(=O)SCCNC(=O)CCNC(=O)OCc1ccccc1 | 77 to 104 °C
CN1CC=C(c2c[nH]c3ccc(C(=O)O)cc23)CC1 | 249 °C
CCOC(=O)c1c(C)[nH]c(CC)c1CC | 104 to 106 °C
O=C1N(Cc2ccccn2)c2cccnc2C12COc1cc3c(cc12)OCCO3 (stereo unspecified) | 146 to 147 °C
CCCCCC(O)CNCCCCCCNCC(O)CCCCC (stereo unspecified) | 131 to 134 °C
CCOC(=O)c1cn(Cc2ccccc2OC)c2c(F)c(F)c(F)cc2c1=O | 203 to 204 °C
COc1cc(C(=O)Nc2c(C)cc3cn[nH]c3c2C(=O)NC(C)C)n(-c2ncccc2Cl)n1 | 148 to 151 °C
OC(c1ccccc1)(c1ccccc1Cl)c1nccn1Cc1ccccc1 (stereo unspecified) | 168 °C
Cn1cccc1CCN1C(=O)NCc2c(-c3ccccc3)cccc21 | 158 to 161 °C
O=S(=O)(c1ccc(CO)cc1)N1CCCC1c1ccc(F)cc1 (racemic) | 107 °C
NC(=O)COc1cccc(CCNS(=O)(=O)c2cccc(C(F)(F)F)c2)c1 | 118 °C
N#Cc1nn(-c2c(Cl)cc(C(F)(F)F)cc2Cl)c(Cl)c1C=C(Br)Br | 119 to 120 °C
CCOc1ccc2c(ccn2C)c1O | 69 to 70 °C
COC(=O)C1=C(NC(=O)NC2CCCCC2)CSC1 | 154 to 155 °C
O=C1c2ccccc2C(=O)N1CC#Cc1ccc2c(c1)C(c1ccccc1F)=NCc1nnc(C(F)(F)F)n1-2 | 204 to 206 °C
Fc1ccccc1C1=NCCN(C2=NCCO2)c2ccc(Cl)cc21 | 162 to 164 °C

Structure (SMILES) | melting point
COc1ccc(-c2coc3c(C)c(O)ccc3c2=O)cc1 | 235 °C
NC(=O)OC[C@H]1NC(=O)[C@H]1NC(=O)OCc1ccccc1 | 192 to 193 °C
CCOc1cc2cc(CO)nc(-c3ccc(Cl)c([N+](=O)[O-])c3)c2cc1OCC | 187 to 188 °C
COc1cc(Nc2c(C#N)cnc3cc4cc(OC)c(OCCN5CCN(C)CC5)cc4cc23)c(Cl)cc1F | 170 to 173 °C
CCOC(=O)Cc1nn(CC2Nc3cc(C(F)(F)F)ccc3S2)c(=O)c2ccccc12 (stereo unspecified) | 134 °C
FC(F)(F)C1(c2cc(Cl)cc(Cl)c2)CC(c2ccc(Br)c3ccccc23)=NO1 (stereo unspecified) | 127 to 130 °C
O=C1c2ccc(OCCOCCOCCO)cc2C(=O)c2ccc(OCCOCCOCCO)cc21 | 110 °C
COC(=O)[C@H](CCCC(OC)OC)N1C(=O)c2ccccc2C1=O | 69 to 70 °C
Cc1cccc(S(=O)(=O)N2CCCC2c2ccc(F)cc2)c1 (racemic) | 102 °C
O=c1n(C(c2ccccc2)(c2ccccc2)c2ccccc2)nc2ccc(Cl)nn12 | 246 to 247 °C
O=C1OC(=O)c2c1cccc2-c1ccccc1 | 148 to 149 °C
O=C(c1ccccc1)c1ccc(Nc2nc(Nc3ccc(C(=O)c4ccccc4)cc3)nc(-c3cccn3Cc3ccccc3)n2)cc1 | 115 to 118 °C
CCC(C)S(=O)(=O)c1snc(OC(F)F)c1C#N (stereo unspecified) | 42 to 43 °C
CCCc1c(OCCCCCCc2cccc(OCCCCCCCC(=O)O)c2CCC(=O)O)ccc2c1OCCC2=O | 79 to 81 °C
CCOC(=O)COc1ccc(-c2nn(-c3ccccc3)c3ncccc23)cc1 | 118 to 120 °C
CC(C)(C)CC(C)(C)c1ccc(Oc2ccc(C(F)(F)F)cc2NC(=O)Nc2cc(C(F)(F)F)cc(C(F)(F)F)c2)c(C(=O)O)c1 | 233 °C
c1ccc(Nc2c(-c3ccccc3)sc3ccccc23)cc1 | 142 to 143 °C
OCC1Oc2cccc(F)c2OC1CO (stereo unspecified) | 122 to 124 °C
COCN(c1cccc2cc(C(N)=O)n(COC)c12)S(=O)(=O)c1cccs1 | 203 to 204 °C
CCOc1c(/C=C/c2ccc(NS(C)(=O)=O)cc2)cc(-n2ccc(=O)[nH]c2=O)cc1C(C)(C)C | 265 to 266 °C

Structure (SMILES) | melting point
N#Cc1cccc(C2=Nc3cc(CO)c(-c4ccccc4F)cc3NC(=O)C2)c1 | 90 to 91 °C
O=C(O)COc1ccc2c(c1)CCc1sc(SCCC(c3ccccc3)c3ccccc3)nc1-2 | 138 to 140 °C
COc1ccc(NN=C2C(=O)Nc3ccc(C4=NNC(=O)SC4C)cc32)cc1 (stereo unspecified) | 273 °C
O=C1NCCN1C(=O)N1CCOCC1 | 158 °C
COC(=O)c1cc(-c2ccc(OC)c(OC)c2)nn(CC(C)C)c1=O | 104 to 106 °C
Cc1cccc2c1Sc1ccccc1N2 | 115 °C
Cc1cc(-c2ccc(S(C)(=O)=O)cc2)n(-c2ccc(F)cc2)c1 | 127 to 130 °C
CNC(=O)C(Cc1ccc(OC)cc1)NC(=O)C(CC(C)C)C(S)CC(=O)NCC(=O)OC(C)(C)C (stereo unspecified) | 223 to 226 °C
N#CC(=O)c1ccccc1CCl | 54.5 to 56.5 °C
CCOc1ccc2c(c1)c(I)c1n2CCC1 | 128 to 129 °C
COc1ccc(C(O)CNCCc2ccc(OC)c(OC)c2Cl)cc1 (stereo unspecified) | 117 to 120 °C
O=C(/C=C/c1ccc(C(F)(F)F)cc1Br)Nc1ccc2ncsc2c1 | 214 to 215 °C
COC(=O)CCCCC(=O)N(O)c1ccc2ccccc2c1O | 111 to 113 °C
NNC(=O)c1cc2c(Oc3ccc(Cl)cc3)cncc2s1 | 197 to 199 °C
O=C1NOCc2ccccc21 | 123 to 125 °C
NNc1nc2c(Cl)cccc2s1 | 232 to 235 °C
COc1cc(C(=O)NS(=O)(=O)c2ccccc2C)ccc1Cc1c(Cl)n(C)c2ccc(CC(C)NC(=O)N(C)C)cc12 (stereo unspecified) | 120 to 130 °C
CCCCC(c1ccc2[nH]c(=O)c(-c3ccccc3)nc2c1)n1ccnc1 (stereo unspecified) | 192 °C

Results, then the molecule that gave them:

melting point | Structure (SMILES)
120 to 127 °C | Cc1cc(Cl)ccc1N1CCC(=O)N(C)C1=O
186 to 187 °C | O=C1CCCN1[C@@H]1c2cc(C(F)(F)F)ccc2OC(CF)(CF)[C@H]1O (relative stereo)
67 to 69 °C | CCOC(=O)C(C)C(O)(c1ccc(OC)cc1)c1ccc(OC)cc1 (stereo unspecified)
155 to 157 °C | O=C(c1ccc(-n2ccnc2-c2ccccc2)cc1)C1CC1
92 to 93 °C | CC(=O)c1cc(C)ccc1OCCCN1CCC(c2noc3cc(F)ccc23)CC1
177 °C | CC(=S)NCC1CN(c2ccc(C(=O)NN)c(F)c2)C(=O)O1 (stereo unspecified)
147 to 148 °C | Cc1noc(NC(=O)N2CCN(c3cncc(-c4ccc(F)cc4F)c3)CC2)c1C
122 to 123 °C | CCOC(=O)NCCC12CC(c3ccccc31)c1ccccc12
138 to 139 °C | NCC1c2ccccc2CCN1CC(O)CN1CCOCC1 (stereo unspecified)
54 °C | CC(=O)c1ccc(C2CC(C)(C)CC(C)(C)C2)cc1
148 to 151 °C | CCCCCS(=O)(=O)NC(=O)/C=C/c1cc(OCC2CC2)nn1Cc1ccc(C(F)(F)F)cc1Cl
183 to 185 °C | CCCCc1nc(=O)c2cc(C(O)c3ccco3)ccc2[nH]1 (stereo unspecified)
240 to 250 °C | CN(C)c1cc(N)c(C(=O)O)cc1[N+](=O)[O-]
203 to 204 °C | CC(=O)Nc1nc(CCN2CCC(c3c[nH]c4ccccc34)CC2)cs1
245 to 246 °C | CC(C)(C)OC(=O)N1CCN(c2nc(N)nc3nc(N)c(-c4ccccc4)nc23)CC1
196 °C | Cc1nc(C(F)(F)F)ccc1/C=C/C(=O)Nc1ccc2ncsc2c1
169 to 171 °C | COc1ccc(NC(=O)c2ccc3c(c2)C(C)(C)C(=O)N3)cc1
278 to 280 °C | CN1CCN(c2ccc(N/C=C3\C(=O)NC(=O)c4ccc(C(=O)O)cc43)cc2)CC1
178 to 180 °C | CCCc1ccnc2c(=O)[nH]c(-c3cc(S(=O)(=O)N4CCNCC4)ccc3OCC)nc12
160 to 162 °C | CCOC(=O)C=C(C)Nc1ccc2nc[nH]c2c1
197 to 198 °C | CC(C)(O)Cn1cnc2c(N)nc3ccc(Br)cc3c21
138 to 139 °C | CC(C)(C)OC(=O)N1CCC(CCNC(=O)c2noc(-c3ccc(C#N)cc3)n2)CC1

melting point | Structure (SMILES)
201 to 202 °C | CC1(C)CC(=O)Nc2cc3nc(-c4ccncc4)[nH]c3cc21
163 to 166 °C | COc1ccc(C(=O)Nc2ccc3c(c2)CCCC3=O)cc1
218 to 220 °C | CCCn1nc2c(N)nc3ccccc3c2c1CC1CCOCC1
132 to 133 °C | COC(=O)c1cc2cc(O)ccc2o1
133 to 137 °C | CCc1cc(=O)c2c([nH]1)CCCC2
114 to 117 °C | Cc1nc(OCC(F)(F)F)c([N+](=O)[O-])c(N2CCC(c3ccccc3)CC2)n1
157 to 159 °C | CCOC(=O)c1ccc(-c2nc3ccc(C)cn3c2CO)cc1
213 °C | Cc1nc(C(C)(C)C)ccc1/C=C/C(=O)Nc1ccc2[nH]c(CO)cc2c1
165 to 166 °C | CCOC(=O)c1[nH]c(C)nc1C
160 to 161 °C | CCOC(=O)c1cn(-c2ccccc2)nc1OCc1ccc(OCc2nc(-c3ccccc3)oc2C)c(OC)c1
124 to 127 °C | Cc1ccc(S(=O)(=O)OCC2COc3ccc4nccnc4c3O2)cc1 (stereo unspecified)
49 to 49.5 °C | CSCCCC(=O)C(=C1NCCCS1)[N+](=O)[O-]
182 to 184 °C | CN(C)C1CCN(c2ccc(NC(=O)n3ccc4cc(Oc5cc(CC(N)=O)ncn5)ccc43)cc2C(F)(F)F)C1 (stereo unspecified)
144 to 145 °C | Cc1oc(C2(C)CC=CCC2)nc1CC(=O)O (stereo unspecified)
136 to 138 °C | COc1cc(-c2nc(N)sc2CCC2CCC(C)(C)CC2)c(OC)cc1C
88 to 90 °C | CCC(C#N)(C(=O)N1CCOCC1)c1ccccc1 (stereo unspecified)
156 to 158 °C | Cc1ccc(CS(=O)c2c(O)cc(C)oc2=O)cc1 (stereo unspecified)
> 320 °C | CCOc1cccc(-c2nc3ccc(C(=O)O)cc3c(=O)[nH]2)c1OCC
152 to 153 °C | CCN1C(=O)C(=O)N(c2cc(F)ccc2C)C1=S
150 to 152 °C | CCOC(=O)c1nc(C2CCCCC2)n(-c2cccc(Cl)c2F)c1Br
> 300 °C | Cc1cc2oc(C(N)=O)cc(=O)c2c(C)c1Cl
